The values below come from article PMC12294558, “New 1,2,4-Triazole Derivatives with a N-Mannich Base Structure Based on a 4,6-Dimethylpyridine Scaffold as Anticancer Agents: Design, Synthesis, Biological Evaluation, and Molecular Modeling” (International Journal of Molecular Sciences, 2025).

One test relates to Caspase-3. Kind of test: Human Caspase-3 (active) ELISA on HT-29 cell lysates. The class given is cell-based. Conditions: HT-29, 1 µM, 24 h. Here is the method:
To check the effect of compound 6 on the level of p-53 and caspase-3 protein, another test was performed on HT-29 cells, taking doxorubicin as the reference drug.
To assess the level of caspase-3 and p53 protein, HT-29 cell lysates were used after 24 h of incubation with compounds 5 and 6. The supernatant was collected in the prepared and labeled tubes, the cells from the wells were scraped, and the wells were washed with cold PBS, which was also collected. The tubes were then centrifuged, the supernatant was removed, and the cell pellet was lysed in a cell extraction vessel for 30 min on ice, with […] every 10 min. The lysate was transferred to centrifuge tubes and centrifuged at 13,000 rpm for 10 min at 4 °C. The supernatant was transferred to clean tubes in a microcentrifuge.
The following kits were used: Human Caspase-3 (active) ELISA Kit (KHO1091) and p53 Human ELISA Kit (BMS256), used following the manufacturer’s instructions. ELISA kits were purchased from Thermo Fisher Scientific (Waltham, MA, USA). The absorbance was measured using a Multiskan GO microplate reader (Thermo Fisher Scientific, Waltham, MA, USA) at wavelengths specific to each kit, as recommended by the manufacturer.

A further test relates to interleukin-6. Kind of test: IL-6 ELISA in HT-29 supernatant. The class given is cell-based, human. Conditions: HT-29, 1 µM. An excerpt:
The different effects of the anticancer compound on IL-6 and IL-1β can be explained by the different regulatory mechanisms of these cytokines and the distinct signaling pathways targeted by the therapy. The reduction in IL-6 levels may be due to the direct action of the compound on pathways promoting this cytokine or its ability to inhibit inflammatory processes specific to IL-6. In contrast, the increase in IL-1β levels might result from the inflammatory response to cellular stress or apoptosis induced by the therapy, leading to activation of the immune system and increased production of IL-1β.
Cytokine levels (IL-1β and IL-6) in the supernatant were measured for HT-29 and EPG cells treated with compounds 5 and 6, according to the instructions provided by the manufacturer of the ELISA kits were purchased from Abcam (Cambridge, UK). The absorbance was measured using a Multiskan GO microplate reader (Thermo Fisher Scientific, Waltham, MA, USA) at wavelengths specific to each kit, as recommended by the manufacturer.

For the molecule `Cc1ccc(N2CCN(Cn3nc(CNC(=O)c4c(C)cc(C)nc4S)n(-c4ccccc4)c3=S)CC2)cc1` [Compound 6], the “Caspase-3 Conc. ± SD” value in the test on Caspase-3 is recorded as 0.48 ± 0.07 ng/mL. In addition, in the test with interleukin-6, the “IL-6 Conc. ± SD” value came out at 7.80 ± 0.30 pg/mL.
